Experimental data published in ChEMBL document CHEMBL1136037, “Novel benzthiodiazepinones as antiherpetic agents: SAR improvement of therapeutic index by alterations of the seven-membered ring” (Bioorg Med Chem Lett, 2002).

Legend:
[1] = system: Human alphaherpesvirus 1; assay: Inhibitory concentration against herpes simplex virus (HSV-1-lacZ) replication
[2] = Toxic concentration against uninfected cells and their ability to generate XTT formazan; assay type: ADME, cell-based; conditions: read-out: TC50 (the source's name)
[3] = Therapeutic index; conditions: read-out: Therapeutic index

EC50 [1] [nM] | SMILES | CC50 [2] [µM] | selectivity ratio [3]
50 | COc1ccc2sc3c(c2c1)N[C@@H](C)CNC3=O | 2 | 40
30 | COc1cccc(CN2C[C@@H](C)NC(=O)c3sc4ccc(OC)cc4c32)c1 | 3.4 | 170
21 | COc1ccc2sc3c(c2c1)N(Cc1ccccc1C)CCNC3=O | 25 | 1200
340 | COc1ccc2sc3c(c2c1)NC[C@@H](Cc1ccccc1)NC3=O | 10 | 29
4 | COc1ccc2sc3c(c2c1)N(Cc1cccc([N+](=O)[O-])c1)CCNC3=O | 25 | 6250
170 | COc1ccc2sc3c(c2c1)NC[C@H](C)NC3=O | 6 | 35
90 | COc1ccc2sc3c(c2c1)N[C@H](Cc1ccccc1)CNC3=O | 1.4 | 16
5 | COc1ccc2sc3c(c2c1)N(Cc1cccc(C)c1)CCNC3=O | 12 | 2400
12 | COc1ccc(CN2CCNC(=O)c3sc4ccc(OC)cc4c32)cc1 | 10 | 830
20 | COc1cccc(CN2C[C@H](C)NC(=O)c3sc4ccc(OC)cc4c32)c1 | 11 | 550
390 | COc1ccc2sc3c(c2c1)NC[C@@H](CC(C)C)NC3=O | 7 | 18
50 | COc1ccc2sc3c(c2c1)N(Cc1ccc([N+](=O)[O-])cc1)CCNC3=O | 25 | 500
60 | COc1ccc2sc3c(c2c1)NC[C@H](C(C)C)NC3=O | 4 | 67
0.4 | COc1cccc(CN2CCNC(=O)c3sc4ccc(OC)cc4c32)c1 | 10 | 25000
130 | COc1ccc2sc3c(c2c1)N[C@H](C)CNC3=O | 7 | 54
450 | COc1cccc(CN2C[C@@H](Cc3ccccc3)NC(=O)c3sc4ccc(OC)cc4c32)c1 | 4 | 9
5 | COc1ccc2sc3c(c2c1)N(Cc1cccc(Cl)c1)CCNC3=O | 20 | 4000

EC50 [1] [nM] | SMILES | CC50 [2] [µM] | selectivity ratio [3]
10 | COc1ccc2sc3c(c2c1)N[C@@H](Cc1ccccc1)CNC3=O | 1.1 | 110
30 | COc1ccc2sc3c(c2c1)N(Cc1ccc(C)cc1)CCNC3=O | 11 | 360
90 | COc1cccc(CN2C[C@H](Cc3ccccc3)NC(=O)c3sc4ccc(OC)cc4c32)c1 | 6 | 67
125 | COc1ccc2sc3c(c2c1)SCCNC3=O | 7.6 | 60
130 | COc1ccc2sc3c(c2c1)NCCNC3=O | 4.5 | 35
2550 | COc1ccc2sc3c(c2c1)[S+]([O-])CCNC3=O (centres undefined) | 25.8 | 10
20 | COc1ccc2sc3c(c2c1)NC[C@H](CC(C)C)NC3=O | 2 | 100
440 | COc1ccc2sc3c(c2c1)N(C)CCNC3=O | 12.5 | 28
1 | C=CCN1CCNC(=O)c2sc3ccc(OC)cc3c21 | 1.75 | 1750
5 | COc1ccc2sc3c(c2c1)N(Cc1ccccc1)CCNC3=O | 8 | 1600
90 | COc1ccc2sc3c(c2c1)NC[C@@H](C(C)C)NC3=O | 3.3 | 37
210 | COc1ccc2sc3c(c2c1)OCCNC3=O | 13.1 | 60
8 | COc1ccc2sc3c(c2c1)N(Cc1ccccc1Cl)CCNC3=O | 12 | 1500
40 | COc1ccc2sc3c(c2c1)N(Cc1ccc(Cl)cc1)CCNC3=O | 12 | 300
280 | COc1ccc2sc3c(c2c1)NC[C@H](Cc1ccccc1)NC3=O | 1.9 | 7
20 | COc1ccc2sc3c(c2c1)NC[C@@H](C)NC3=O | 1 | 50
